Columns and labels:
TrkA kinase = TrkA kinase (Homo sapiens, UniProt P04629); experiment: TrkA kinase biochemical activity assay (AlphaScreen); details: 100 μM ATP; read-out: Biochemical Inhibition IC50 TrkA
Summary of the method: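 Recombinant TrkA with 30 nM biotin-(E4Y)10 and 100 μM ATP in 25 mM Hepes pH 7.5, 10 mM MnCl2, 5% DMSO, 40 min at room temperature. Phosphorylation read by AlphaScreen (streptavidin donor, PY20 acceptor beads); IC50 from signal vs compound concentration. TrkC run similarly.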

SKNSH cells = experiment: SKNSH (human neuroblastoma) cell proliferation assay (ATPlite); assay type: cell-based; details: SK-N-SH, read-out: Inhibition of Cell Proliferation IC50, SKNSH
Summary of the method: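 SK-N-SH human neuroblastoma cells grown in RPMI with 10% FBS were pelleted, resuspended at 2×10^4 cells/mL, and plated at 3,000 cells per well (150 μL) in 96-well plates, then kept overnight at 37° C. in 5% CO2. Compounds in an 8-point 1:3 DMSO series were added as 0.75 μL aliquots.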

Chain of TrkA kinase (P04629 33-796): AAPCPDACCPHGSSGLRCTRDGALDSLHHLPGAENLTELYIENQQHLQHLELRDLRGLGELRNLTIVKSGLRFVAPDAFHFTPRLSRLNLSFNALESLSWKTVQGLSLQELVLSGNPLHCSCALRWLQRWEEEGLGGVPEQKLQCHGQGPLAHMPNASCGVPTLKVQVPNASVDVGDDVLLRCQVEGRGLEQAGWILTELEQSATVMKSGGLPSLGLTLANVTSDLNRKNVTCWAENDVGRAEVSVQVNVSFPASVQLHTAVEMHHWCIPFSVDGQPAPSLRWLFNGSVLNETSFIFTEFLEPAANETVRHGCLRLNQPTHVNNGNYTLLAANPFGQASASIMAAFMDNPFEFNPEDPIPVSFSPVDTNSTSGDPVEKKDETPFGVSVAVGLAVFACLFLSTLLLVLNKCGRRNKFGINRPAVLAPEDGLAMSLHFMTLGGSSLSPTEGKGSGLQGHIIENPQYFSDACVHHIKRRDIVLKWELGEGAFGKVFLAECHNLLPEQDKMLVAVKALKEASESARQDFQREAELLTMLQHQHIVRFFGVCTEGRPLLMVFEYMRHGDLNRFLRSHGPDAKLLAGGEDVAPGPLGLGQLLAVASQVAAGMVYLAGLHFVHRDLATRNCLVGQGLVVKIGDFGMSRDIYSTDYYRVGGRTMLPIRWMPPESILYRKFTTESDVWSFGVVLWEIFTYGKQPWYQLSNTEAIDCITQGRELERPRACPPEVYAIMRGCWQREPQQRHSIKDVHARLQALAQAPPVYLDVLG

Row | Compound | IC50 (TrkA kinase) [µM] | IC50 (SKNSH cells) [µM]
1 | CCCOc1ccc(Nc2ncc(Cc3c[nH]c4ncc(C)cc34)cn2)cc1 [Compound P-3024, [5-(5-Methyl-1H-pyrrolo[2,3-b]pyridin-3-ylmethyl)-pyrimidin-2-yl]-(4-propoxy-phenyl)-amine] | < 1 | < 1
2 | CCOc1ccc(Nc2ncc(Cc3c[nH]c4ncc(C)cc34)cn2)cc1 [Compound P-3026, (4-Ethoxy-phenyl)-[5-(5-methyl-1H-pyrrolo[2,3-b]pyridin-3-ylmethyl)-pyrimidin-2-yl]-amine] | > 1 | > 25
3 | CCOc1ccc(Nc2ncc(Cc3c[nH]c4ncc(C)cc34)cn2)cn1 [Compound P-3027, (6-Ethoxy-pyridin-3-yl)-[5-(5-methyl-1H-pyrrolo[2,3-b]pyridin-3-ylmethyl)-pyrimidin-2-yl]-amine] | < 1 | > 25
4 | Cc1cnc2[nH]cc(Cc3cnc(Nc4cc(C(C)(C)C)n[nH]4)nc3)c2c1 [Compound P-3029, (5-tert-Butyl-2H-pyrazol-3-yl)-[5-(5-methyl-1H-pyrrolo[2,3-b]pyridin-3-ylmethyl)-pyrimidin-2-yl]-amine] | < 1 | > 25
5 | Cc1cnc2[nH]cc(Cc3cnc(Nc4cc(C5CC5)n[nH]4)nc3)c2c1 [Compound P-3032, (5-Cyclopropyl-2H-pyrazol-3-yl)-[5-(5-methyl-1H-pyrrolo[2,3-b]pyridin-3-ylmethyl)-pyrimidin-2-yl]-amine] | > 1 | < 1
6 | Cc1cnc2[nH]cc(Cc3cnc(Nc4ccc(S(C)(=O)=O)cc4)nc3)c2c1 [Compound P-3034, (4-Methanesulfonyl-phenyl)-[5-(5-methyl-1H-pyrrolo[2,3-b]pyridin-3-ylmethyl)-pyrimidin-2-yl]-amine] | < 1 | < 1
7 | CCn1ccc(Nc2ncc(Cc3c[nH]c4ncc(C)cc34)cn2)n1 [Compound P-3035, (1-Ethyl-1H-pyrazol-3-yl)-[5-(5-methyl-1H-pyrrolo[2,3-b]pyridin-3-ylmethyl)-pyrimidin-2-yl]-amine] | < 1 | < 1
8 | CCn1cc(Nc2ncc(Cc3c[nH]c4ncc(C)cc34)cn2)cn1 [Compound P-3036, (1-Ethyl-1H-pyrazol-4-yl)-[5-(5-methyl-1H-pyrrolo[2,3-b]pyridin-3-ylmethyl)-pyrimidin-2-yl]-amine] | < 1 | < 20
9 | Cc1cnc2[nH]cc(Cc3ccc(Nc4ccc(C)nc4)nc3F)c2c1 [Compound P-3041, [6-Fluoro-5-(5-methyl-1H-pyrrolo[2,3-b]pyridin-3-ylmethyl)-pyridin-2-yl]-(6-methyl-pyridin-3-yl)-amine] | < 1 | > 1
10 | COc1ccc(Nc2ccc(Cc3c[nH]c4ncnc(OC)c34)c(F)n2)cn1 [Compound P-4001, [6-Fluoro-5-(4-methoxy-7H-pyrrolo[2,3-d]pyrimidin-5-ylmethyl)-pyridin-2-yl]-(6-methoxy-pyridin-3-yl)-amine] | < 0.1 | < 1
11 | COc1ccc(Nc2ccc(Cc3c[nH]c4ncnc(C)c34)c(F)n2)cn1 [Compound P-4002, [6-Fluoro-5-(4-methyl-7H-pyrrolo[2,3-d]pyrimidin-5-ylmethyl)-pyridin-2-yl]-(6-methoxy-pyridin-3-yl)-amine] | < 0.1 | < 0.1
12 | COc1ncnc2[nH]cc(Cc3ccc(Nc4ccc(Cl)nc4)nc3F)c12 [Compound P-4003, (6-Chloro-pyridin-3-yl)-[6-fluoro-5-(4-methoxy-7H-pyrrolo[2,3-d]pyrimidin-5-ylmethyl)-pyridin-2-yl]-amine] | < 1 | > 1
13 | COc1ncnc2[nH]cc(Cc3ccc(Nc4ccc(C5CC5)nc4)nc3F)c12 [Compound P-4004, (6-Cyclopropyl-pyridin-3-yl)-[6-fluoro-5-(4-methoxy-7H-pyrrolo[2,3-d]pyrimidin-5-ylmethyl)-pyridin-2-yl]-amine] | < 0.1 | < 1
14 | CCOc1ccc(Nc2ccc(Cc3c[nH]c4ncnc(OC)c34)c(F)n2)cn1 [Compound P-4005, (6-Ethoxy-pyridin-3-yl)-[6-fluoro-5-(4-methoxy-7H-pyrrolo[2,3-d]pyrimidin-5-ylmethyl)-pyridin-2-yl]-amine] | < 0.1 | < 1
15 | CCOc1ccc(Nc2ccc(Cc3c[nH]c4ncnc(C)c34)c(F)n2)cn1 [Compound P-4006, (6-Ethoxy-pyridin-3-yl)-[6-fluoro-5-(4-methyl-7H-pyrrolo[2,3-d]pyrimidin-5-ylmethyl)-pyridin-2-yl]-amine] | < 0.1 | < 0.1
16 | COc1ncnc2[nH]cc(Cc3ccc(Nc4ccc(C)nc4)nc3F)c12 [Compound P-4010, [6-Fluoro-5-(4-methoxy-7H-pyrrolo[2,3-d]pyrimidin-5-ylmethyl)-pyridin-2-yl]-(6-methyl-pyridin-3-yl)-amine] | < 1 | < 1

The next lines start with the values.

Row | IC50 (TrkA kinase) [µM] | IC50 (SKNSH cells) [µM] | Compound
17 | < 0.1 | < 1 | COc1ccc(Nc2ncc(Cc3c[nH]c4ncc(C)cc34)cn2)cc1 [Compound P-3021, (4-Methoxy-phenyl)-[5-(5-methyl-1H-pyrrolo[2,3-b]pyridin-3-ylmethyl)-pyrimidin-2-yl]-amine]
18 | < 0.1 | < 1 | CCc1ccc(Nc2ncc(Cc3c[nH]c4ncc(C)cc34)cn2)cc1 [Compound P-3025, (4-Ethyl-phenyl)-[5-(5-methyl-1H-pyrrolo[2,3-b]pyridin-3-ylmethyl)-pyrimidin-2-yl]-amine]
19 | < 0.1 | < 20 | Cc1cnc2[nH]cc(Cc3cnc(Nc4cc(-c5ccc(F)cc5)n[nH]4)nc3)c2c1 [Compound P-3028, [5-(4-Fluoro-phenyl)-2H-pyrazol-3-yl]-[5-(5-methyl-1H-pyrrolo[2,3-b]pyridin-3-ylmethyl)-pyrimidin-2-yl]-amine]
20 | < 0.01 | < 0.1 | Cc1cnc2[nH]cc(Cc3cnc(Nc4ccc(C(C)(C)C)cc4)nc3)c2c1 [Compound P-3030, (4-tert-Butyl-phenyl)-[5-(5-methyl-1H-pyrrolo[2,3-b]pyridin-3-ylmethyl)-pyrimidin-2-yl]-amine amine]
21 | < 0.1 | < 0.1 | Cc1cnc2[nH]cc(Cc3cnc(Nc4ccc(C(O)(C(F)(F)F)C(F)(F)F)cc4)nc3)c2c1 [Compound P-3031, 1,1,1,3,3,3-Hexafluoro-2-{4-[5-(5-methyl-1H-pyrrolo[2,3-b]pyridin-3-ylmethyl)-pyrimidin-2-ylamino]-phenyl}-propan-2-ol]
22 | < 0.01 | < 1 | CSc1ccc(Nc2ncc(Cc3c[nH]c4ncc(C)cc34)cn2)cc1 [Compound P-3033, [5-(5-Methyl-1H-pyrrolo[2,3-b]pyridin-3-ylmethyl)-pyrimidin-2-yl]-(4-methylsulfanyl-phenyl)-amine]
23 | < 0.1 | > 1 | CCOc1ccc(Nc2ccc(Cc3c[nH]c4ncc(C)cc34)c(F)n2)cn1 [Compound P-3039, (6-ethoxy-pyridin-3-yl)-[6-fluoro-5-(5-methyl-1H-pyrrolo[2,3-b]pyridin-3-ylmethyl)-pyridin-2-yl]-amine]
24 | < 0.01 | > 1 | COc1ccc(Nc2ccc(C(=O)c3c[nH]c4ncc(C)cc34)c(F)n2)cn1 [Compound P-3040, [2-Fluoro-6-(6-methoxy-pyridin-3-ylamino)-pyridin-3-yl]-(5-methyl-1H-pyrrolo[2,3-b]pyridin-3-yl)-methanone]
25 | < 0.1 | > 1 | Cc1ccc(Nc2ccc(Cc3c[nH]c4ncc(Cl)cc34)c(F)n2)cn1 [Compound P-3042, [5-(5-Chloro-1H-pyrrolo[2,3-b]pyridin-3-ylmethyl)-6-fluoro-pyridin-2-yl]-(6-methyl-pyridin-3-yl)-amine]
26 | < 0.1 | < 1 | Cc1cnc2[nH]cc(C(=O)c3ccc(Nc4ccc(C)nc4)nc3F)c2c1 [Compound P-3043, [2-Fluoro-6-(6-methyl-pyridin-3-ylamino)-pyridin-3-yl]-(5-methyl-1H-pyrrolo[2,3-b]pyridin-3-yl)-methanone]
27 | < 0.1 | > 1 | Cc1ccc(Nc2ccc(C(=O)c3c[nH]c4ncc(Cl)cc34)c(F)n2)cn1 [Compound P-3044, (5-Chloro-1H-pyrrolo[2,3-b]pyridin-3-yl)-[2-fluoro-6-(6-methyl-pyridin-3-ylamino)-pyridin-3-yl]-methanone]
28 | < 0.01 | > 25 | CCOc1ccc(Nc2ccc(C(=O)c3c[nH]c4ncc(C)cc34)c(F)n2)cn1 [Compound P-3045, [6-(6-ethoxy-pyridin-3-ylamino)-2-fluoro-pyridin-3-yl]-(5-methyl-1H-pyrrolo[2,3-b]pyridin-3-yl)-methanone]
29 | < 0.01 | < 1 | CCc1ccc(Nc2ccc(Cc3c[nH]c4ncnc(OC)c34)c(F)n2)cn1 [Compound P-4007, (6-Ethyl-pyridin-3-yl)-[6-fluoro-5-(4-methoxy-7H-pyrrolo[2,3-d]pyrimidin-5-ylmethyl)-pyridin-2-yl]-amine]
30 | < 0.01 | > 1 | CCOc1ccc(Nc2ccc(Cc3c[nH]c4ncnc(OCCOC)c34)c(F)n2)cn1 [Compound P-4008, (6-Ethoxy-pyridin-3-yl)-{6-fluoro-5-[4-(2-methoxy-ethoxy)-7H-pyrrolo[2,3-d]pyrimidin-5-ylmethyl]-pyridin-2-yl}-amine]
31 | < 0.01 | < 0.1 | CCc1ccc(Nc2ccc(Cc3c[nH]c4ncnc(C)c34)c(F)n2)cn1 [Compound P-4009, (6-Ethyl-pyridin-3-yl)-[6-fluoro-5-(4-methyl-7H-pyrrolo[2,3-d]pyrimidin-5-ylmethyl)-pyridin-2-yl]-amine]
